For experiment [1], the target named is T1, μ-opioid receptor (Homo sapiens, UniProt P35372). Put plainly: μ-opioid receptor GTPγS functional assay, U2OS cells. The settings on record: for Emax: read-out: GTPγS μ Emax.
The target of a further experiment is κ-opioid receptor (Homo sapiens, UniProt P41145). Put plainly: κ-opioid receptor GTPγS functional assay, U2OS cells. It counts as biochemical. Also on record: expressed in transfected cells; host or cells: U-2 OS. The protocol:
Plates were incubated for 30 min at a temperature of about 25° C. with shaking.

Experiment [2] concerns the target T1, μ-opioid receptor. Put plainly: biochemical. Conditions: HEK-293 or CHO cells; for EC50: read-out: GTPγS μ EC50; for Emax: relative to DAMGO, read-out: GTPγS μ Emax. Also on record: purchased Perkin Elmer, Shelton, Conn; host or cells: HEK-293 or CHO.
Setting [3] is: U2OS cells, read-out: GTPγS κ EC50.

As usually defined, the EC50 is the concentration needed to bring the measured effect to its halfway point. One may read the Emax as the greatest response seen or fitted, relative to the assay's reference.

Like-named read-outs stand apart in the source and are kept apart here.

T1 sequence (P35372 whole entry, species assumed): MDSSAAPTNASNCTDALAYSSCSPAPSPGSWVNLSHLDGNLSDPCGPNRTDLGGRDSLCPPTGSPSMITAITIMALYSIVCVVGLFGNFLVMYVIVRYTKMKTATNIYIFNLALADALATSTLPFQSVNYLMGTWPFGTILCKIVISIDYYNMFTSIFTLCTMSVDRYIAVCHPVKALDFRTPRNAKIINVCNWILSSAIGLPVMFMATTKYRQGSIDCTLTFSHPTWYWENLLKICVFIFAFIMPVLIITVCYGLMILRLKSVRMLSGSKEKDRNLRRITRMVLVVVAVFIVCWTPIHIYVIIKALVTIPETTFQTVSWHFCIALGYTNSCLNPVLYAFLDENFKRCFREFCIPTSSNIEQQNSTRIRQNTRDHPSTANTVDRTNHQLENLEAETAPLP
Chain of κ-opioid receptor (P41145 whole entry): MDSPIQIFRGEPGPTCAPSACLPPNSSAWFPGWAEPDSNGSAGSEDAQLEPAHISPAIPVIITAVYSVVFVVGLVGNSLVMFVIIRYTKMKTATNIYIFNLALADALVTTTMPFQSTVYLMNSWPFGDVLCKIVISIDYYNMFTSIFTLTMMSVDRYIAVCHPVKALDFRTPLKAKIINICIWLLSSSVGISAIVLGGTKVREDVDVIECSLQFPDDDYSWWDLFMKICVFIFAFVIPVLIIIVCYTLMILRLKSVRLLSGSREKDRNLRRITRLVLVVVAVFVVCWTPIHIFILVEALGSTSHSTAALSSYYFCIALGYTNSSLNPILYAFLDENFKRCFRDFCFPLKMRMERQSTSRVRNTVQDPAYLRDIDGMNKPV

As to `COc1ccc2c(c1)[C@]1(CCNCCCN3CCCC3=O)CCN(C)[C@H](C2)[C@@H]1C` [Compound 57, 1-(3-((2-((2R,6R,11R)-8-methoxy-3,11-dimethyl-2,3,4,5-tetrahydro-2,6-methanobenzo-[d]azocin-6(1H)-yl)ethyl)amino)propyl)pyrrolidin-2-one], the EC50 at μ-opioid receptor [1] was 11.3 ± 0.435 µM; at κ-opioid receptor (setting [3]), 11.4 ± 0.994 µM. In addition, the values for the Emax at μ-opioid receptor [1] and at κ-opioid receptor (U2OS cells) were 70.7 ± 2.03% and 118 ± 2%, respectively.
`C[C@H]1[C@H]2Cc3ccc(O)cc3C1(CCNS(=O)(=O)N(C)C)CCN2CC1CC1` [Compound 9]: at μ-opioid receptor [1], the response was half-maximal at 0.00067 ± 1e-05 µM (EC50) and the Emax was found to be 27%.
Take `COc1ccc2c(c1)[C@]1(CCN3CCC[C@@H]3C(=O)O)CCN(C)[C@H](C2)[C@@H]1C` [Compound 60, (2-((2R,6S,11R)-8-methoxy-3,11-dimethyl-2,3,4,5-tetrahydro-2,6-methanobenzo[d]azocin-6(1H)-yl)ethyl)-D-proline]: at μ-opioid receptor [1], the 50% effective concentration (EC50) was found to be 4.91 ± 1.08 µM and the Emax was found to be 49 ± 3.61%. The molecule also came in with a maximum response (Emax) at κ-opioid receptor (U2OS cells) of 97.7 ± 8.09%.
Take `C[C@H]1[C@H]2Cc3ccc(O)cc3[C@]1(CCNC(=O)NC(c1ccccc1)c1ccccc1)CCN2C` [Compound 73, 1-Benzhydryl-3-(2-((2R,6R,11R)-8-hydroxy-3,11-dimethyl-2,3,4,5-tetrahydro-2,6-methanobenzo[d]azocin-6(1H)-yl)ethyl)urea]: on μ-opioid receptor [2], the EC50 is 0.00364 ± 0.00088 µM and the Emax was found to be 69.4 ± 1.22%.
For the molecule `COc1ccc2c(c1)[C@]1(CCO)CCN(C)[C@H](C2)[C@@H]1C` [Compound 50, 2-((2R,6S,11R)-8-methoxy-3,11-dimethyl-2,3,4,5-tetrahydro-2,6-methano-benzo[d]azocin-6(1H)-yl)ethan-1-ol], the EC50 at μ-opioid receptor [1] is 2.39 ± 0.271 µM; at κ-opioid receptor it was above 2.32 µM. For the same molecule, the Emax turned out to be 88.3 ± 7.62% at μ-opioid receptor [1] and 103 ± 8.41% on κ-opioid receptor (U2OS cells).
For `COc1ccc2c(c1)[C@]1(CCNC(=O)NS(=O)(=O)c3ccc(F)cc3)CCN(C)[C@H](C2)[C@@H]1C` [Compound 67, 4-fluoro-N-((2-((2R,6R,11R)-8-methoxy-3,11-dimethyl-2,3,4,5-tetrahydro-2,6-methanobenzo[d]azocin-6(1H)-yl)ethyl)-carbamoyl)benzene-sulfonamide], at μ-opioid receptor [2], the EC50 came out at 2.45 ± 0.692 µM and the Emax was 26.3 ± 3.38%.
Taken in the same sequence, the figures for `COc1ccc2c(c1)[C@@]1(CCNC3(C(=O)O)CC3)CCN(CC3CC3)[C@@H](C2)[C@H]1C` [Compound 35, 1-((2-((2S,6S,11S)-3-(cyclopropyl-methyl)-8-methoxy-11-methyl-2,3,4,5-tetrahydro-2,6-methanobenzo[d]azocin-6(1H)-yl)ethyl)amino)cyclopropane-1-carboxylic acid] were 17.5 ± 6.78 µM and 13 ± 1.53%.
In the case of `C[C@H]1[C@H]2Cc3ccc(O)cc3[C@]1(CCNC(=O)[C@@H]1CCCC(=O)N1)CCN2CC1CC1` [Compound 82, (S)-N-(2-((2R,6R,11R)-3-(cyclopropyl-methyl)-8-hydroxy-11-methyl-2,3,4,5-tetrahydro-2,6-methanobenzo[d]azocin-6(1H)-yl)ethyl)-6-oxopiperidine-2-carboxamide], on μ-opioid receptor [2], the concentration giving a half-maximal response (EC50) was 0.0196 ± 0.00939 µM and the Emax turned out to be 8.9 ± 0.9%.
On the same counts, the results for `C[C@@H]1[C@@H]2Cc3ccc(O)cc3[C@@]1(CCN1CCC(N(C3CC3)S(=O)(=O)c3ccccc3)CC1)CCN2C` [Compound 14, N-cyclopropyl-N-(1-(2-((2S,6S,11S)-8-hydroxy-3,11-dimethyl-2,3,4,5-tetrahydro-2,6-methanobenzo[d]azocin-6(1H)-yl)ethyl)piperidin-4-yl)-benzenesulfonamide] are 11.9 ± 1.22 µM and 69 ± 0.58%.
For the molecule `COc1ccc2c(c1)[C@@]1(CCO)CCN(C)[C@@H](C2)[C@H]1C` [Compound 49, 2-((2S,6R,11S)-8-methoxy-3,11-dimethyl-2,3,4,5-tetrahydro-2,6-methanobenzo-[d]azocin-6(1H)-yl)ethan-1-ol], the Emax at μ-opioid receptor [1] was 21%; at κ-opioid receptor (U2OS cells), 41 ± 4.58%.
With `COc1ccc2c(c1)[C@]1(CCNCCCn3ccnc3)CCN(C)[C@H](C2)[C@@H]1C` [Compound 55, 3-(1H-imidazol-1-yl)-N-(2-((2R,6R,11R)-8-methoxy-3,11-dimethyl-2,3,4,5-tetrahydro-2,6-methanobenzo[d]azocin-6(1H)-yl)ethyl)propan-1-amine], the results for the EC50 on μ-opioid receptor [1] and on κ-opioid receptor (setting [3]) were 14.5 ± 0.653 µM and 14.7 ± 1.24 µM, respectively. Besides, the Emax on μ-opioid receptor [1] worked out at 82 ± 2.65%; at κ-opioid receptor (U2OS cells), 113 ± 1.45%.
On the same counts, the results for `COc1ccc2c(c1)[C@]1(CCN3CCC(N(C4CC4)S(=O)(=O)c4ccc(Cl)cc4)CC3)CCN(C)[C@H](C2)[C@@H]1C` [Compound 53, 4-chloro-N-cyclopropyl-N-(1-(2-((2R,6R,11R)-8-methoxy-3,11-dimethyl-2,3,4,5-tetrahydro-2,6-methanobenzo-[d]azocin-6(1H)-yl)ethyl)piperidin-4-yl)-benzenesulfonamide] are 1.25 ± 0.0854 µM, 7 ± 3.06 µM, 63.3 ± 2.03% and 13.3 ± 2.19%.
With `C[C@H]1[C@H]2Cc3ccc(O)cc3[C@]1(CCNC(=O)[C@@H]1CCC(=O)N1)CCN2CC1CC1` [Compound 81, (S)-N-(2-((2R,6R,11R)-3-(cyclopropyl-methyl)-8-hydroxy-11-methyl-2,3,4,5-tetrahydro-2,6-methanobenzo[d]azocin-6(1H)-yl)ethyl)-5-oxopyrrolidine-2-carboxamide], on μ-opioid receptor [2], the EC50 came to 0.0181 ± 0.00415 µM and the Emax came out at 10.8 ± 0.96%.
Consider `COC[C@@H]1CCCN1CC[C@]12CCN(C)[C@H](Cc3ccc(OC)cc31)[C@@H]2C` [Compound 56, (2R,6S,11R)-8-methoxy-6-(2-((S)-2-(methoxymethyl)pyrrolidin-1-yl)ethyl)-3,11-dimethyl-1,2,3,4,5,6-hexahydro-2,6-methanobenzo[d]azocine], for which the figures for the EC50 at μ-opioid receptor [1] and at κ-opioid receptor (setting [3]) were 5.99 ± 1.22 µM and 5.49 ± 0.434 µM, respectively. The results for the Emax at μ-opioid receptor [1] and at κ-opioid receptor (U2OS cells) were 72.3 ± 2.85% and 94.7 ± 4.48%, respectively.
Taken in the same sequence, the figures for `COc1ccc2c(c1)[C@]1(CCN(C)CCCN(C)C)CCN(C)[C@H](C2)[C@@H]1C` [Compound 54] were 18.7 ± 1.89 µM, 9.86 ± 0.349 µM, 95 ± 2.65% and 125 ± 1.53%.
For the molecule `C[C@H]1[C@H]2Cc3ccc(O)cc3[C@]1(CCNC(=O)[C@@H]1CCCN1)CCN2C` [Compound 71, (S)-N-(2-((2R,6R,11R)-8-hydroxy-3,11-dimethyl-2,3,4,5-tetrahydro-2,6-methano-benzo[d]azocin-6(1H)-yl)ethyl)-pyrrolidine-2-carboxamide], at μ-opioid receptor [2], the EC50 worked out at 1.58 ± 0.177 µM and the Emax was 36 ± 0.58%.
On to `C[C@H]1[C@H]2Cc3ccc(O)cc3[C@]1(CCNC(=O)NS(=O)(=O)c1ccccc1)CCN2C` [Compound 75, N-((2-((2R,6R,11R)-8-hydroxy-3,11-dimethyl-2,3,4,5-tetrahydro-2,6-methanobenzo[d]azocin-6(1H)-yl)-ethyl)carbamoyl)benzenesulfonamide], for which, at μ-opioid receptor [2], the EC50 came out at 0.314 ± 0.0302 µM and the Emax came out at 24.7 ± 0.17%.
Turning to `C[C@H]1[C@H]2Cc3ccc(O)cc3[C@]1(CCNC(=O)NCC(c1ccccc1)c1ccccc1)CCN2C` [Compound 77, 1-(2,2-diphenylethyl)-3-(2-((2R,6R,11R)-8-hydroxy-3,11-dimethyl-2,3,4,5-tetrahydro-2,6-methanobenzo[d]azocin-6(1H)-yl)ethyl)urea], on μ-opioid receptor [2], the EC50 was 0.00461 ± 0.00075 µM and the Emax was found to be 57.1 ± 2.33%.

Source of the values: patent US10130615B2, “Benzomorphan analogs and the use thereof” (priority 2014, dated 2018).
